PMC11207571, “Applicability of MDR1 Overexpressing Abcb1KO-MDCKII Cell Lines for Investigating In Vitro Species Differences and Brain Penetration Prediction” (Pharmaceutics, 2024)

Experiments:
[1] = Bidirectional transport assay, efflux ratio in Abcb1KO-MDCKII-Mock control cells; settings: dog, MDCK, pH 7.4
Description: (§1) Eluent A consisted of 0.1% formic acid in water, eluent B consisted of 0.1% formic acid in acetonitrile. Then, 10 µL samples were injected into the HPLC-MS/MS system. Mass spectrometric detection was performed in SRM mode, and ion transitions for each analyte were optimized during method development. Samples were analyzed in pools, with each pool containing three to four analytes.

[2] = target: T1, human MDR1 (Homo sapiens, UniProt P08183); test: Bidirectional transport assay, efflux ratio in Abcb1KO-MDCKII hMDR1 cells; settings: for efflux ratio at 120 min, 1 µM: human, MDCK-MDR1, pH 7.4; for CNS penetration classification based on hMDR1 ER alone: ER cut-off 2, in vivo rodent Kp,uu,brain cut-off 0.3
Description: as §1

[3] = target: T2, rat Mdr1a (Rattus norvegicus, UniProt Q6PSM0); test: Bidirectional transport assay, efflux ratio in Abcb1KO-MDCKII rMDR1 cells; settings: rat, pH 7.4
Description: as §1

[4] = target: T3, mouse Mdr1a (Mus musculus, UniProt P21447); test: Bidirectional transport assay, efflux ratio in Abcb1KO-MDCKII mMDR1 cells; settings: mouse, pH 7.4
Description: as §1

[5] = target: T4, cynomolgus monkey Mdr1 (Macaca fascicularis, UniProt Q8HZQ6); test: Bidirectional transport assay, efflux ratio in Abcb1KO-MDCKII cyMDR1 cells; settings: cynomolgus monkey, pH 7.4
Description: as §1

[6] = target: T5, human BCRP (Homo sapiens, UniProt Q9UNQ0); test: Bidirectional transport assay, efflux ratio in MDCKII-BCRP cells; settings: human, pH 7.4
T5 sequence (Q9UNQ0 1-655): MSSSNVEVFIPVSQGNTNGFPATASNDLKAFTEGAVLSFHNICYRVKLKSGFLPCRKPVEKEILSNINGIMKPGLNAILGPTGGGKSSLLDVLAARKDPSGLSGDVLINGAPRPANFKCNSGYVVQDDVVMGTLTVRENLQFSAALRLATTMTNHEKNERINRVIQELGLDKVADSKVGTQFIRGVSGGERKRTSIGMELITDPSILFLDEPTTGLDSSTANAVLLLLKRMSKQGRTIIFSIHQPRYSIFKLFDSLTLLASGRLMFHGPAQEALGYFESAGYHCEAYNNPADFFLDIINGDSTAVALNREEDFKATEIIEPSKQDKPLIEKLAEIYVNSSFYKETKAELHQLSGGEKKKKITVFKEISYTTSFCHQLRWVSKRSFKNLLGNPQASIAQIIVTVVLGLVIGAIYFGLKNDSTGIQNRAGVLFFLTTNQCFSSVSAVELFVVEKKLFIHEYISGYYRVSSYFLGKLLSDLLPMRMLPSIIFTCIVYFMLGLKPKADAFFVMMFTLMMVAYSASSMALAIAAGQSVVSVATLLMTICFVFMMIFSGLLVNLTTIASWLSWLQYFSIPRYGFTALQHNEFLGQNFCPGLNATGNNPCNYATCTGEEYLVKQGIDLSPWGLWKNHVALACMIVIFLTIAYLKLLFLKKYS
Description: as §1

[7] = target: T4, cynomolgus monkey Mdr1; test: cell-based
[8] = target: T1, human MDR1; test: Inhibition of 3H-digoxin or 3H-quinidine bidirectional transport in hMDR1 cells; settings: IC50 from ER
[9] = target: T4, cynomolgus monkey Mdr1; test: Inhibition of 3H-digoxin or 3H-quinidine bidirectional transport in cyMDR1 cells; settings: Inhibition of quinidine transport IC50±SD, cyMDR1, probe 3H-quinidine 0.1 µM, 60 min; IC50 from ER
[10] = target: T2, rat Mdr1a; test: Inhibition of 3H-digoxin or 3H-quinidine bidirectional transport in rMDR1 cells; assay type: cell-based; design: rat Mdr1a (NM_133401.1); expressed in transfected cells; host or cells: Abcb1KO-MDCKII (canine kidney, endogenous Abcb1 knocked out), transduced, single-cell clone; settings: IC50 from ER
[11] = target: T3, mouse Mdr1a; test: Inhibition of 3H-digoxin or 3H-quinidine bidirectional transport in mMDR1 cells; assay type: cell-based; design: mouse Mdr1a (NM_011076.3); expressed in transfected cells; host or cells: Abcb1KO-MDCKII (canine kidney, endogenous Abcb1 knocked out), transduced, single-cell clone; settings: IC50 from ER
[12] = system: hMDR1 and hBCRP; test: Brain permeability classification from total ER of hMDR1 and hBCRP against in vivo rodent Kp,uu,brain; settings: total ER cut-off 3; in vivo rodent Kp,uu,brain cut-off 0.3
Description: MDR1 and/or BCRP substrate properties were investigated by binary classification analysis on CNS+ and CNS− compounds. […] True negative (TN), where there was no efflux and the CNS+ compound crossed the BBB. […] The sensitivity and specificity of the estimation of brain penetration along with MDR1 and BCRP activity were calculated from predictive performance metrics.
First, NET ER was calculated and used for human predictions, (2) NET ER=ER(−inh)[…]ER(+inh) where ER(−inh) is ER in the absence of inhibitor, and ER(+inh) is ER in the presence of inhibitor, for hMDR1 (ERMDR1) or hBCRP (ERBCRP).
To identify the correlation between the in vivo rodent Kp,uu,brain and ERs, 58 compounds with known Kp,uu,brain were selected. An ER of 2 was used as a cut-off to classify MDR1 substrates and a Kp,uu,brain of 0.3 was used as a threshold for CNS penetrant compounds. The resulting graphs are thus divided into four quadrants. Brain penetration (Kp,uu,brain) was used as the logical value true condition, with compounds having Kp,uu,brain ≤ 0.3 considered positive. Q2 and Q3 comprise molecules with impaired brain penetration. […] Molecules in Q4 (true negatives, TN) can freely access the brain (Figure 2). Predictive performance metrics were calculated to show the efficacy of the established cell lines in BBB permeability classification (Table 1). Sensitivity refers to the ability of the model to correctly classify CNS-restricted molecules based on MDR1 substrate nature.
Subsequently, for a more reliable prediction of brain penetration, data generated in the hBCRP cell line were included in the analysis. hBCRP assay conditions and evaluations were identical to that of MDR1 cell lines, which allowed proper comparisons (Figure 2E,F). Total ER was calculated by combining ERs determined in BCRP and hMDR1 cell lines based on Equation (3), with an ER cut-off of 3. […] Eventually, total ERs were also assessed with the Relative Expression Factor (REF) (Equation (4); Figure 2E,F). REF is an in vitro and in vivo correlation scaler, calculated from transporter protein abundances in brain microvessels versus overexpressing cell lines.

[13] = Inhibition of digoxin transport IC50±SD, hMDR1, probe 3H-digoxin 1 µM, 120 min
[14] = Inhibition of quinidine transport IC50±SD, hMDR1, probe 3H-quinidine 1 µM, 60 min
[15] = Inhibition of digoxin transport IC50±SD, rMDR1, probe 3H-digoxin 1 µM, 120 min
[16] = Inhibition of quinidine transport IC50±SD, rMDR1, probe 3H-quinidine 1 µM, 30 min
[17] = Inhibition of digoxin transport IC50±SD, mMDR1, probe 3H-digoxin 1 µM, 120 min
[18] = Inhibition of quinidine transport IC50±SD, mMDR1, probe 3H-quinidine 1 µM, 60 min

T3 sequence (P21447 whole entry): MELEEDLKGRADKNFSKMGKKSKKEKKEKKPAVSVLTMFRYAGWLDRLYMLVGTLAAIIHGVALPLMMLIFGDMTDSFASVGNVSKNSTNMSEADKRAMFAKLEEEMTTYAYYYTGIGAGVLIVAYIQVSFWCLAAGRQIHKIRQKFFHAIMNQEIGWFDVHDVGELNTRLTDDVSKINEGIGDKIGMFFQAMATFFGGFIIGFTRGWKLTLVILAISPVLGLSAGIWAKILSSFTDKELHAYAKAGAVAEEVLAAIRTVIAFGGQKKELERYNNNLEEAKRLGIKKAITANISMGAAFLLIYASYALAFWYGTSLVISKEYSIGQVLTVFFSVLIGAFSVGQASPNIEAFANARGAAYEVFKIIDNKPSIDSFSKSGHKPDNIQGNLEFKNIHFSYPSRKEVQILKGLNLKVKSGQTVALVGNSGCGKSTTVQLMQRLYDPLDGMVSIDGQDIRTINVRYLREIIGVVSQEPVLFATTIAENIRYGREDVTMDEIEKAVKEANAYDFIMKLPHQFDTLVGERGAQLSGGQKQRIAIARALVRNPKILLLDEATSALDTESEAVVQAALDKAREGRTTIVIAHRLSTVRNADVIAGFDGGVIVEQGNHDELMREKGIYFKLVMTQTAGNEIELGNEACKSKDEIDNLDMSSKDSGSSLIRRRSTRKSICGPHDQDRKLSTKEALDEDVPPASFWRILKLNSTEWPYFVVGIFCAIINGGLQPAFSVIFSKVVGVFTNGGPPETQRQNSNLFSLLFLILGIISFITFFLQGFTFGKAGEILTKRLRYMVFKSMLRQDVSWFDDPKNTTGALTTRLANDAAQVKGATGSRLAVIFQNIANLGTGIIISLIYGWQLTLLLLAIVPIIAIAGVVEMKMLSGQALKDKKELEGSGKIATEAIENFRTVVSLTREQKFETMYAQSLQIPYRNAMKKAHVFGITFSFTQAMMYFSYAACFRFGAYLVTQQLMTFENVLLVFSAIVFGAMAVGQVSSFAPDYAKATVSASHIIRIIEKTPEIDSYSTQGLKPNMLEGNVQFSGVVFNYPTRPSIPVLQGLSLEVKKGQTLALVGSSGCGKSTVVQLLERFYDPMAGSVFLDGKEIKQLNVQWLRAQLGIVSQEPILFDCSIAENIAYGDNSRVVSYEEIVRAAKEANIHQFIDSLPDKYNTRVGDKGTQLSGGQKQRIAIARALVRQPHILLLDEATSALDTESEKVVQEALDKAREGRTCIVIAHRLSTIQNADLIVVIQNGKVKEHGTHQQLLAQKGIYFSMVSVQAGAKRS
T1 sequence (P08183 whole entry): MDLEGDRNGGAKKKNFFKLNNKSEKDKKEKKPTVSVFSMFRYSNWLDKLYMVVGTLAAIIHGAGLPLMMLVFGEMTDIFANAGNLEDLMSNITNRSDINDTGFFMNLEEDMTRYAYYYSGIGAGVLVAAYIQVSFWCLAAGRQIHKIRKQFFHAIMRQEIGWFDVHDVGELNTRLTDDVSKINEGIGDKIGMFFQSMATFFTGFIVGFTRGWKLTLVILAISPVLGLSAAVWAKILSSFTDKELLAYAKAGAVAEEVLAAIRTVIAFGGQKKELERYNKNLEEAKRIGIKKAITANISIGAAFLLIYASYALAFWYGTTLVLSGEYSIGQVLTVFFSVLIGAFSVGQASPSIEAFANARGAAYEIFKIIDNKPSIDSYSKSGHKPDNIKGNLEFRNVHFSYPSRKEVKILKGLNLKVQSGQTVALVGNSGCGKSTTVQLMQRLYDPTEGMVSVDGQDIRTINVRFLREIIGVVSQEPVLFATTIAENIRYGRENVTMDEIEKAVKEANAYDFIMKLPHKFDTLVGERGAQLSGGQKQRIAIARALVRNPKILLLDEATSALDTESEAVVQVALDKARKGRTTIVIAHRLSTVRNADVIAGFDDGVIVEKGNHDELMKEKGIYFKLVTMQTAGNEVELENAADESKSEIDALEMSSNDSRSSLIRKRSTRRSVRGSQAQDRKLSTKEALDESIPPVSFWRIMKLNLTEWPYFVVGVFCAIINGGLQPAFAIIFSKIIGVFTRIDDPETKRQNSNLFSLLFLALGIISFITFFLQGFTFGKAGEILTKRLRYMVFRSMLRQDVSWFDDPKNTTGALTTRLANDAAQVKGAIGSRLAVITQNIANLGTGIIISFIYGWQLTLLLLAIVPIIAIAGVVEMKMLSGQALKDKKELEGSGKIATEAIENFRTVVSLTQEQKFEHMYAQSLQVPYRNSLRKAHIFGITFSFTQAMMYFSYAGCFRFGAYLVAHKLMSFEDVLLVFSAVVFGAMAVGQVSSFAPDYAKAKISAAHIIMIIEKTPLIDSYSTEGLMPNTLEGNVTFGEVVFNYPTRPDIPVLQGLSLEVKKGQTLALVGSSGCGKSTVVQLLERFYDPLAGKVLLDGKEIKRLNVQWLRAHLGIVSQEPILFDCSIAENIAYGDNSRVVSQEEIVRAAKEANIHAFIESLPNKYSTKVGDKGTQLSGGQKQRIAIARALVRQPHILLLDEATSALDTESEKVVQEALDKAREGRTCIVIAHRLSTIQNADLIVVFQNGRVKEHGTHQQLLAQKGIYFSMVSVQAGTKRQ
T2 sequence (Q6PSM0 1-1272): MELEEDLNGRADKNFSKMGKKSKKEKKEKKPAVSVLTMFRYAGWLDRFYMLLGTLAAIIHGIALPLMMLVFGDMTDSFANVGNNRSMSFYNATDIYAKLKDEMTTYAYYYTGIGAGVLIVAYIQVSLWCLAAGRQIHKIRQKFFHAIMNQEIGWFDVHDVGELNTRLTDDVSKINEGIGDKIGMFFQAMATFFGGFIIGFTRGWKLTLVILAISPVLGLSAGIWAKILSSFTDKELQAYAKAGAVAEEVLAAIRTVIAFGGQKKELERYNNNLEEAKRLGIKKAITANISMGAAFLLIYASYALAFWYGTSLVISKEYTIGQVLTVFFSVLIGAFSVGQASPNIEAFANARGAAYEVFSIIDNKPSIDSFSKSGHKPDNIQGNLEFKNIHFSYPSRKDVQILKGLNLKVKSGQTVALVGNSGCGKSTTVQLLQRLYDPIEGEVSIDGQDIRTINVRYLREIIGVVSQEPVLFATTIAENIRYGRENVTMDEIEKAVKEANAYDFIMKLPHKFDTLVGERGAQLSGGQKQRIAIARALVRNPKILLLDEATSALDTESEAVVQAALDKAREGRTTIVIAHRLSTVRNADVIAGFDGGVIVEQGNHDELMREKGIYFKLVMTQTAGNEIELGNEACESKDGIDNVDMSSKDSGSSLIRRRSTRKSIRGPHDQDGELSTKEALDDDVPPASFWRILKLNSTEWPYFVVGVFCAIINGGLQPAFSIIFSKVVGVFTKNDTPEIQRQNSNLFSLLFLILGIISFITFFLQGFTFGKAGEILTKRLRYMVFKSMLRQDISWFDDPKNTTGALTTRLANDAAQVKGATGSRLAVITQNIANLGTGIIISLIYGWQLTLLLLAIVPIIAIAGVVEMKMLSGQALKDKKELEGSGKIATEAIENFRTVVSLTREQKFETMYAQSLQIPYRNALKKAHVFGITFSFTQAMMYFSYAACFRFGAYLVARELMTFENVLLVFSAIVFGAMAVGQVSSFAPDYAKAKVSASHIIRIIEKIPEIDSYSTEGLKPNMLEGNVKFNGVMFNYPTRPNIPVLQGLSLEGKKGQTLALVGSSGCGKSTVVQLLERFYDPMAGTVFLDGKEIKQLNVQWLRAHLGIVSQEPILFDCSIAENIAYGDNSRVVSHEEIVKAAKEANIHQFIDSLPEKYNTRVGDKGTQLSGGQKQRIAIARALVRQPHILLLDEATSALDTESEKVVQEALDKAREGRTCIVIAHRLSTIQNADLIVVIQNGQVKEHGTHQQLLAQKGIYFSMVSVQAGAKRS
T4 sequence (Q8HZQ6 1-1283): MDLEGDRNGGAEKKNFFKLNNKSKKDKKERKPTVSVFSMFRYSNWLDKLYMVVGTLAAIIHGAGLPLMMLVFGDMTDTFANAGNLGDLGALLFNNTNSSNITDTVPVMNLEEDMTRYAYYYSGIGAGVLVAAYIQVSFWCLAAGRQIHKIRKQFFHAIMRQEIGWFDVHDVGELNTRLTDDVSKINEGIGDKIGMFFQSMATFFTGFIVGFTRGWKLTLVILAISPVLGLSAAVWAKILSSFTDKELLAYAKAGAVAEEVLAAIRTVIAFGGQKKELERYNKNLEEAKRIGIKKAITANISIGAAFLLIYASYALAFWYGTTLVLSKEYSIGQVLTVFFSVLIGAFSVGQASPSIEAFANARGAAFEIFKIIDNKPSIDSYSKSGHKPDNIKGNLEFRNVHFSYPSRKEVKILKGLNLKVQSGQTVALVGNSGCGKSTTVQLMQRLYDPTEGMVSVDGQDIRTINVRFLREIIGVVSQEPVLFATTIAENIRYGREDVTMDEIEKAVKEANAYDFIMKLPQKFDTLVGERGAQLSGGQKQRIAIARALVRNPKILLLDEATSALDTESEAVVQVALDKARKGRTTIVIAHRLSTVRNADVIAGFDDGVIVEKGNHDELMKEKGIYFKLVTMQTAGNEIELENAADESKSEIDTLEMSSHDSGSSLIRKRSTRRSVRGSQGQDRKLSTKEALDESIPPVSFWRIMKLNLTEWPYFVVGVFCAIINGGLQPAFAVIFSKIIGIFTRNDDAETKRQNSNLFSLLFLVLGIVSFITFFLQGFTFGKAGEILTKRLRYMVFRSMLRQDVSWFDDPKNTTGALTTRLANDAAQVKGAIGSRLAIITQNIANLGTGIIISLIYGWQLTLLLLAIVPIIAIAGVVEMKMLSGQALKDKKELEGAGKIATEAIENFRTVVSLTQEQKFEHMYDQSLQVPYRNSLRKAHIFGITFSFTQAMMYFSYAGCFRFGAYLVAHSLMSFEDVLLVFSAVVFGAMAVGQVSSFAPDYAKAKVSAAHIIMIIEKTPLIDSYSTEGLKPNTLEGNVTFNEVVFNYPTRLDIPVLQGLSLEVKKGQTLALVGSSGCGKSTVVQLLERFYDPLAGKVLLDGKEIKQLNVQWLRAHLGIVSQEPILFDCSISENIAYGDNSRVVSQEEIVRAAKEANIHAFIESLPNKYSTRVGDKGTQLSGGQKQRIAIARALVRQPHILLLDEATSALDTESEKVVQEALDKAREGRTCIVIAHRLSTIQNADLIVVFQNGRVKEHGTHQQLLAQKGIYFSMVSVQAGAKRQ

SMILES	efflux ratio at 120 min, 1 µM [1]	efflux ratio at 120 min, 1 µM [2]	efflux ratio at 120 min, 1 µM [3]	efflux ratio at 120 min, 1 µM [4]	efflux ratio at 120 min, 1 µM [5]	efflux ratio at 120 min, 1 µM [6]	IC50 [7] [µM]	IC50 [8, 13] [µM]	IC50 [8, 14] [µM]	IC50 [9] [µM]	IC50 [10, 15] [µM]	IC50 [10, 16] [µM]	IC50 [11, 17] [µM]	IC50 [11, 18] [µM]	CNS penetration classification based on hMDR1 ER alone [2]	CNS penetration classification based on total ER (hMDR1 + hBCRP) [12]
COc1ccccc1OCCNCC(O)COc1cccc2[nH]c3ccccc3c12 (centres unmarked) [Carvedilol]	0.62 ± 0.04	14.5 ± 0.62	2.13 ± 0.08	1.94 ± 0.21	1.12 ± 0.06	2.38 ± 0.23	1.55 ± 0.59	19.1 ± 7.45	0.41 ± 0.24	1.02 ± 0.79	4.22 ± 1	1.01 ± 0.13	2 ± 0.55	1.64 ± 0.9		
CCN(CC)C(=O)/C(C#N)=C/c1cc(O)c(O)c([N+](=O)[O-])c1 [Entacapone]	0.32 ± 0.02	0.28 ± 0.02	0.39 ± 0.03	0.34 ± 0.05	0.46 ± 0.07	49.4 ± 3.92									false negatives	true positives
CCOC(=O)C1=C(C)NC(C)=C(C(=O)OC)C1c1cccc(Cl)c1Cl (centres unmarked) [Felodipine]							12.4 ± 5.74			50.7 ± 19.7	> 100	40.6 ± 7.71	28.6 ± 7.95	> 100		
N=C(N)N/N=C/c1c(Cl)cccc1Cl [Guanabenz]	0.93 ± 0.15	0.82 ± 0.1	0.85 ± 0.13	1.08 ± 0.09	0.84 ± 0.1	3.35 ± 1.17										false positives
COc1ccc2c(c1)c(CC(=O)O)c(C)n2C(=O)c1ccc(Cl)cc1 [Indomethacin]	0.37 ± 0.07	0.42 ± 0.05	0.4 ± 0.01	0.39 ± 0.02	0.4 ± 0.03	10.2 ± 0.71									false negatives	true positives
COC(=O)C1=C(C)NC(C)=C(C(=O)OC(C)C)C1c1cccc2nonc12 (centres unmarked) [Isradipine]							10.6 ± 4.73	> 50	2.07 ± 1.28	19.3 ± 5.76	15.2 ± 2.84	13.6 ± 9.37	5.28 ± 2.94	19.3 ± 3.75		
CCC(C)n1ncn(-c2ccc(N3CCN(c4ccc(OCC5COC(Cn6cncn6)(c6ccc(Cl)cc6Cl)O5)cc4)CC3)cc2)c1=O (centres unmarked) [Itraconazole]							0.36 ± 0.19			0.32 ± 0.12	4.41 ± 1.05	0.15 ± 0.07	1.39 ± 0.5	0.48 ± 0.11		
CN(C)C(=O)C(CCN1CCC(O)(c2ccc(Cl)cc2)CC1)(c1ccccc1)c1ccccc1 [Loperamide]	0.49 ± 0.03	48.7 ± 3.51	10.5 ± 2.34	16 ± 2.75	6.38 ± 0.55	2 ± 0.23	6.3 ± 2.27	38.3 ± 4.59	4.75 ± 0.32	1.36 ± 0.34	11.1 ± 4.28	1.01 ± 0.49	6.5 ± 1.1	0.96 ± 0.33		
OC[C@@H](O)[C@@H](O)[C@H](O)[C@H](O)CO [Mannitol]	0.96 ± 0.12	0.87 ± 0.14	0.89 ± 0.12	1.04 ± 0.16	0.76 ± 0.1	0.73 ± 0.2										false negatives
COCC(=O)O[C@]1(CCN(C)CCCc2nc3ccccc3[nH]2)CCc2cc(F)ccc2[C@@H]1C(C)C [Mibefradil]							4.84 ± 1.82			3.61 ± 2.04	7.42 ± 2.76	1.11 ± 0.21	7.15 ± 4.58			
CCOC(=O)C1=C(C)NC(C)=C(C(=O)OC)C1c1cccc([N+](=O)[O-])c1 (centres unmarked) [Nitrendipine]							3.15 ± 1.7	> 50	> 50	17.5 ± 4.96	4.02 ± 1.64	6.34 ± 2.68	> 50	15.7 ± 5.68		
Cc1nccn1CC1CCc2c(c3ccccc3n2C)C1=O (centres unmarked) [Ondansetron]	0.7 ± 0.02	5.24 ± 0.68	7.62 ± 0.39	5.33 ± 0.54	3.77 ± 0.64	4.28 ± 0.71										false positives
CCCc1nc2c(C)cc(-c3nc4ccccc4n3C)cc2n1Cc1ccc(-c2ccccc2C(=O)O)cc1 [Telmisartan]	0.38 ± 0.06		2.65 ± 0.75	2.2 ± 0.27	3.18 ± 0.63	12.2 ± 0.95	4.06 ± 1.69	15.2 ± 5.66	1.81 ± 0.87	1.55 ± 0.53	11.6 ± 3.91	2.72 ± 1.26	2.6 ± 1.59	2.28 ± 0.97		
Cc1ccccc1C(=O)Nc1ccc(C(=O)N2CCCC(O)c3cc(Cl)ccc32)c(C)c1 (centres unmarked) [Tolvaptan]							6.68 ± 1.63	> 30	1.28 ± 0.44	5.11 ± 1.65	8.79 ± 2.81	4.14 ± 1.47	10.9 ± 1.46	3.92 ± 0.87		
O[C@@H](COc1cccc2ncccc12)CN1CCN([C@@H]2c3ccccc3[C@@H]3[C@H](c4ccccc42)C3(F)F)CC1 [Zosuquidar]							0.05 ± 0.02			0.12 ± 0.09	0.6 ± 0.29	0.57 ± 0.21	0.37 ± 0.13	0.49 ± 0.26		
